Data taken from patent US20230039086A1, “BMS-986165 CRYSTAL FORM, PREPARATION METHOD THEREFOR AND USE THEREOF” (CRYSTAL PHARMACEUTICAL (SUZHOU) CO., LTD., priority 2019, published 2023).
Entries after “also recorded” stand apart in the source; their conditions may differ.

Tests used:
[1] = systemic lupus erythematosus and Crohn's disease; cited from earlier work
[2] = phase III clinical study results announced in November 2020, moderate to severe plaque psoriasis; cited from earlier work
[3] = Adhesiveness (material sticking to the punch during compression); format: physicochemical; settings: for Adhesiveness (in words): compared with Form A where a comparison is stated
Procedure: Approximately 30 mg of Form CSII and Form A were weighed and then added into the dies of φ8 mm round tooling, compressed at 10 kN and held for 30 s. The material sticking to the punch was recorded. The compression was repeated twice and the cumulative amount, maximum amount and average amount of material sticking to the punch during the compression were recorded.

[4] = Compressibility (ENERPAC manual tablet press, tablet hardness and tensile strength); format: physicochemical; settings: 80 mg, φ6 mm round tooling, 10 KN; for Diameter / Hardness / Thickness: after 24 h at room temperature; for Tensile strength: calculated T=2H/πDL*9.8
Procedure: (§1) ENERPAC manual tablet press was used for compression. 80 mg of Form CSI and Form A were weighed and added into the dies of a φ6 mm round tooling, compressed at 10 KN manually, then stored at room temperature for 24 h until complete elastic recovery. Hardness (H) was tested with an intelligent tablet hardness tester. Diameter (D) and thickness (L) were tested with caliper. Tensile strength of the powder was calculated with the following formula: T=2H/πDL*9.8. Under a certain force, the greater the tensile strength, the better the compressibility.
as §1, with “CSII” for “CSI”

[5] = Thermodynamic stability: suspension of Form A plus Form CSI stirred at 5 °C, solid checked by XRPD; format: physicochemical
Procedure: A certain amount of Form A was weighed into glass vail and 0.3 mL of solvent mixtures of water and acetonitrile, water and methanol, or water and acetone according to table 8 were added to form suspensions. Approximately 6 mg of Form CSI of the present disclosure was added in the suspension. After mixing at 5° C. for 5 minutes, a portion of the solid was taken out and tested by XRPD. After the suspension was stirred at 5° C. for 6 days, a portion of the solid was taken out and tested by XRPD again.

[6] = Storage stability at 25 °C/60% RH and 40 °C/75% RH, crystalline form by XRPD and chemical purity by HPLC; format: physicochemical; settings: for Purity: HPLC; for Crystalline form after storage: XRPD
Procedure: Approximately 5 mg of Form CSI in the present disclosure was stored under different conditions of 25° C./60% RH and 40° C./75% RH. Crystalline form and chemical purity were checked by XRPD and HPLC, respectively.
Approximately 5 mg of Form CSII in the present disclosure was stored under different conditions of 25° C./60% RH and 40° C./75% RH. Crystalline form and chemical purity were checked by XRPD and HPLC, respectively.

[7] = Physical stability under pressure (tableting), XRPD before and after; format: physicochemical
Text: A certain amount of Form CSI was compressed into tablets under 3 kN, 7 kN and 14 kN with suitable tableting die. Crystalline forms before and after tableting were checked by XRPD.
A certain amount of Form CSII was compressed into tablets under 5 kN, 10 kN and 20 kN with suitable tableting die. Crystalline forms before and after tableting were checked by XRPD.

[8] = Physical stability on manual grinding, XRPD before and after; format: physicochemical; settings: ground manually for 5 minutes in a mortar
Procedure: Form CSII was grounded manually for 5 minutes in a mortar. Crystalline form before and after grinding were checked by XRPD.

[9] = about 30 mg, φ8 mm round tooling, 10 kN held for 30 s
[10] = 25 °C/60% RH, open and sealed, 6 months
[11] = 25 °C/60% RH, sealed (closed), 6 months
[12] = 40 °C/75% RH, open and sealed, 6 months
[13] = 40 °C/75% RH, sealed (closed), 6 months

Row | Average amount of material sticking to the punch [3, 9] | Maximum amount of material sticking to the punch [3, 9] | Adhesiveness (in words) [3] | Time for which the crystalline form is stable (does not change) ([6]; 25 °C/60% RH, open and sealed) | Change of chemical purity during storage (in words) [6, 10] | Crystalline form after storage ([6]; 25 °C/60% RH, open, 6 months) | Crystalline form after storage [6, 11] | Time for which the crystalline form is stable (does not change) ([6]; 40 °C/75% RH, open and sealed) | Change of chemical purity during storage (in words) [6, 12] | Crystalline form after storage ([6]; 40 °C/75% RH, open, 6 months) | Crystalline form after storage [6, 13] | Diameter [4] | Hardness [4] | Thickness [4] | Tensile strength [4] | SMILES | Compressibility / behaviour during tablet pressing (in words) [4] | further results
1 | – | – | – | – | – | – | – | – | – | – | – | – | – | – | – | [2H]C([2H])([2H])NC(=O)c1nnc(NC(=O)C2CC2)cc1Nc1cccc(-c2ncn(C)n2)c1OC [BMS-986165, 6-(cyclopropanecarboxamido)-4-((2-methoxy-3-(1-methyl-1H-1,2,4-triazol-3-yl)phenyl)amino)-N-(methyl-d3)pyridazine-3-carboxamide] | – | Therapeutic effect [1]: good therapeutic effects; Clinical effect [2]: positive clinical effects
2 | 0.190 mg | 0.260 mg | high adhesiveness | – | – | – | – | – | – | – | – | – | – | – | – | [2H]C([2H])([2H])NC(=O)c1nnc(NC(=O)C2CC2)cc1Nc1cccc(-c2ncn(C)n2)c1OC [Form A, 6-(cyclopropanecarboxamido)-4-((2-methoxy-3-(1-methyl-1H-1,2,4-triazol-3-yl)phenyl)amino)-N-(methyl-d3)pyridazine-3-carboxamide, reference compound] | poor compressibility; also recorded: splintering | Adhesion quantity of Form A relative to that of Form CSII [3, 9]: 3.2 times
3 | 0.105 mg | 0.130 mg | superior to that of Form A | at least 6 months | remains substantially unchanged | CSI | CSI | at least 6 months | remains substantially unchanged | CSI | CSI | 6.06 mm | 7.87 kgf | 2.39 mm | 3.39 MPa | [2H]C([2H])([2H])NC(=O)c1nnc(NC(=O)C2CC2)cc1Nc1cccc(-c2ncn(C)n2)c1OC [Form CSI, 6-(cyclopropanecarboxamido)-4-((2-methoxy-3-(1-methyl-1H-1,2,4-triazol-3-yl)phenyl)amino)-N-(methyl-d3)pyridazine-3-carboxamide] | better compressibility compared with Form A | Crystalline form of solid after stirring time 5 minutes ([5]; mixture of Form A and about 6 mg Form CSI suspended in 0.3 mL water/acetonitrile, water/methanol or water/acetone (samples 1-7), 5 minutes, XRPD): Form A +; Crystalline form of solid after stirring time 6 days ([5]; mixture of Form A and about 6 mg Form CSI suspended in 0.3 mL water/acetonitrile, water/methanol or water/acetone (samples 1-7), 6 days, XRPD): CSI; Stability relative to Form A (in words) ([5]; water/acetonitrile, water/methanol or water/acetone): better stability than Form A; Chemical purity during storage [6, 10]: above 98.0%; Purity ([6]; 25 °C/60% RH, open, 6 months): 98.76%; Purity ([6]; 25 °C/60% RH, sealed, 6 months): 98.79%; Purity ([6]; 40 °C/75% RH, open, 6 months): 98.74%; Purity ([6]; 40 °C/75% RH, sealed, 6 months): 98.73%; Purity ([6]; initial): 98.13%; Crystalline state after tableting ([7]; tablets compressed under 3 kN, 7 kN and 14 kN): does not change; also recorded: doesn't change
4 | 0.06 mg | 0.06 mg | superior to that of Form A | at least 6 months | remains substantially unchanged | Form CSII | Form CSII | at least 6 months | remains substantially unchanged | Form CSII | Form CSII | 6.08 mm | 4.24 kgf | 2.30 mm | 1.89 MPa | [2H]C([2H])([2H])NC(=O)c1nnc(NC(=O)C2CC2)cc1Nc1cccc(-c2ncn(C)n2)c1OC [Form CSII, 6-(cyclopropanecarboxamido)-4-((2-methoxy-3-(1-methyl-1H-1,2,4-triazol-3-yl)phenyl)amino)-N-(methyl-d3)pyridazine-3-carboxamide] | better compressibility compared with Form A | Crystalline state after tableting ([7]; tablets compressed under 5 kN, 10 kN and 20 kN): does not change; Crystalline state after grinding [8]: does not change; also recorded: doesn't change
